The record followed here is patent US7750154B2, “Amide derivatives” (AstraZeneca AB, priority 2003, dated 2010).

The IC50 is the concentration needed to halve the response being measured.

Test [1] addresses T1, p38α (Homo sapiens, UniProt Q16539).
T1 construct: c-myc (N); 6His (N); made in house; host or cells: E. coli (PET vectors)
Description: In vitro enzyme assay, p38α kinase. It is filed as biochemical.

The test system of test [2] is TNFα production in human whole blood. Description: Human whole blood assay, LPS-stimulated TNFα production. It is filed as cell-based. The settings on record: inhibition of TNFα production. As for the experimental part: The ability of a test compound to inhibit TNFα production was also assessed in a human whole blood assay. Human whole blood secretes TNFα when stimulated with LPS. […] Plates were incubated for 30 minutes at 37° C. (humidified incubator), prior to addition of 20 μl LPS (final concentration 10 μg/ml). Culture medium was added to control wells. Six “LPS alone” and six “medium alone” controls were included on each plate. A known TNFα synthesis/secretion inhibitor was included in each test. Plates were incubated for 6 hours at 37° C. (humidified incubator). Plates were centrifuged (2000 rpm for 10 minutes) and 80 μl plasma removed and stored at −80° C. (Corning 3799 plates). TNFα levels were measured by ELISA using paired antibodies from R&D Systems (catalogue nos. MAB610 and BAF210).

T1 sequence (Q16539 whole entry): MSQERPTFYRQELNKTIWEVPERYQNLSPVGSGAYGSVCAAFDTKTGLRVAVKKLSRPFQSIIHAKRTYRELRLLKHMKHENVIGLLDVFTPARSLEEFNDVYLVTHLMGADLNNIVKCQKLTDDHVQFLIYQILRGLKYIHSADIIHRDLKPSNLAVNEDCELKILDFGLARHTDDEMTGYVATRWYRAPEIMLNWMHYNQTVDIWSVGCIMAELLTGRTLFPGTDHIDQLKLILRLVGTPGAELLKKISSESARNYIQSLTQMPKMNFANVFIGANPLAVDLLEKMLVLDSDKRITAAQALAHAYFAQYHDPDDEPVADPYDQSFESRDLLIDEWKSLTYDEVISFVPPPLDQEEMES

For the compound `Cc1ccc(C(=O)NC2CC2)cc1-n1cnc2ccc(OCCN(C)C)cc2c1=O` [Example 24, N-Cyclopropyl-3-[6-[2-(dimethylamino)ethoxy]-4-oxoquinazolin-3(4H)-yl]-4-methylbenzamide], the half-inhibitory concentration (IC50) in test [1] came to 19 nM; in test [2], 17 nM.
`Cc1ccc(NC(=O)c2ccnc(Cl)c2)cc1-n1cnc2ccc(N3CCN(C)CC3)cc2c1=O` [Comparator Compound A, 3-[5-(2-chloropyrid-4-ylcarbonylamino)-2-methylphenyl]-6-(4-methylpiperazin-1-yl)-3,4-dihydroquinazolin-4-one, reference compound]: the IC50 in test [1] worked out at 277 nM; in test [2] it was 3710 nM.
Turning to `CCCN1CCCN(c2ccc3ncn(-c4cc(C(=O)NC5CC5)ccc4C)c(=O)c3c2)CC1` [Example 7, N-cyclopropyl-4-methyl-3-[4-oxo-6-(4-propyl-1,4-diazepan-1-yl)quinazolin-3(4H)-yl]benzamide], the concentration for half-maximal inhibition (IC50) was found to be 8 nM in test [1] and 34 nM in test [2].
For the compound `Cc1ccc(C(=O)NC2(C)CC2)cc1-n1cnc2ccc(N3CCN(C)CC3)cc2c1=O` [6 (a), 4-methyl-N-(1-methylcyclopropyl)-3-[6-(4-methylpiperazin-1-yl)-4-oxoquinazolin-3(4H)-yl]benzamide], the IC50 was determined as 81 nM in test [1] and 351 nM in test [2].
For `Cc1ccc(NC(=O)c2cc(F)cc(F)c2)cc1-n1cnc2ccc(N3CCN(C)CC3)cc2c1=O` [Comparator Compound B, 3-[5-(3,5-difluorobenzamido)-2-methylphenyl]-6-(4-methylpiperazin-1-yl)-3,4-dihydroquinazolin-4-one, reference compound] the same measures were 41 nM and 3850 nM.
